Assay results taken from US12649722B2, “Herbicidal cinnoline derivatives” (SYNGENTA CROP PROTECTION AG, priority 2020, dated 2026).

Key:
Format in all cases: in vivo
Setaria faberi (SETFA) [1] = assay: Post-emergence Test, SETFA; conditions: sprayed after 8 days cultivation, 1000 g/ha, evaluated after 13 days
Experimental: (§1) Seeds of a variety of test species are sown in standard soil in pots (Amaranthus retoflexus (AMARE), Solarium nigrum (SOLNI), Setaria faberi (SETFA), Lolium perenne (LOLPE), Echinochloa crus-galli (ECHCG), Ipornoea hederacea (IPOHE)). After 8 days cultivation under controlled conditions in a glasshouse (at 24° C./16° C., day/night; 14 hours light; 65% humidity), the plants are sprayed with an aqueous spray solution derived from the formulation of the technical active ingredient in acetone/water (50:50) solution containing 0.5% Tween 20 (polyoxyethylene sorbitan monolaurate, CAS RN 9005-64-5). Compounds are applied at 1000 g/ha unless otherwise stated. The test plants are then grown in a glasshouse under controlled conditions in a glasshouse (at 24° C./16° C., day/night; 14 hours light; 65% humidity) and watered twice daily. After 13 days the test is evaluated for the percentage damage caused to the plant. The biological activities are shown in the following table on a five-point scale (5=81-100%; 4=61-80%; 3=41-60%; 2=21-40%; 1=10-20%; 0=0%; −=not tested).

ABUTH [2] = assay: Post-emergence Test, ABUTH; conditions: sprayed after 8 days cultivation, 1000 g/ha, evaluated after 13 days
Experimental: [The procedure below names another target; the source lists this target under the same test.] as §1

[3] = test system: Amaranthus retoflexus (AMARE); assay: Pre-emergence Test, AMARE; conditions: 1000 g/ha, evaluated after 13 days
ABUTH [4] = assay: Pre-emergence Test, ABUTH; conditions: 1000 g/ha, evaluated after 13 days
[5] = test system: Amaranthus retoflexus (AMARE); assay: Post-emergence Test, AMARE; conditions: sprayed after 8 days cultivation, 1000 g/ha, evaluated after 13 days
Experimental: as §1

[6] = test system: Echinochloa crus-galli (ECHCG); assay: Post-emergence Test, ECHCG; conditions: sprayed after 8 days cultivation, 1000 g/ha, evaluated after 13 days
Experimental: as §1

[7] = test system: Ipornoea hederacea (IPOHE); assay: Post-emergence Test, IPOHE; conditions: sprayed after 8 days cultivation, 1000 g/ha, evaluated after 13 days
Experimental: as §1

[8] = test system: Ipornoea hederacea (IPOHE); assay: Pre-emergence Test, IPOHE; conditions: 1000 g/ha, evaluated after 13 days
Setaria faberi (SETFA) [9] = assay: Pre-emergence Test, SETFA; conditions: 1000 g/ha, evaluated after 13 days
[10] = test system: Echinochloa crus-galli (ECHCG); assay: Pre-emergence Test, ECHCG; conditions: 1000 g/ha, evaluated after 13 days
ZEAMX [11] = assay: Pre-emergence Test, ZEAMX; conditions: 1000 g/ha, evaluated after 13 days
ZEAMX [12] = assay: Post-emergence Test, ZEAMX; conditions: sprayed after 8 days cultivation, 1000 g/ha, evaluated after 13 days
Experimental: [The procedure below names another target; the source lists this target under the same test.] as §1

SMILES	percentage damage caused to the plant, SETFA (Setaria faberi (SETFA) [1])	percentage damage caused to the plant, ABUTH (ABUTH [2])	percentage damage caused to the plant, AMARE [3]	percentage damage caused to the plant, ABUTH (ABUTH [4])	percentage damage caused to the plant, AMARE [5]	percentage damage caused to the plant, ECHCG [6]	percentage damage caused to the plant, IPOHE [7]	percentage damage caused to the plant, IPOHE [8]	percentage damage caused to the plant, SETFA (Setaria faberi (SETFA) [9])	percentage damage caused to the plant, ECHCG [10]	percentage damage caused to the plant, ZEAMX (ZEAMX [11])	percentage damage caused to the plant, ZEAMX (ZEAMX [12])
CCOC(=O)c1nn(-c2ccc(OC(F)(F)F)cc2)c2cccc(N3CCCC3)c2c1=O [Compound P28, ethyl 4-oxo-5-pyrrolidin-1-yl-1-[4-(trifluoromethoxy)phenyl] cinnoline-3-carboxylate]	0 (0=0%)	0 (0=0%)	0 (0=0%)	0 (0=0%)	0 (0=0%)	0 (0=0%)	0 (0=0%)	0 (0=0%)	0 (0=0%)	0 (0=0%)	0 (0=0%)	0 (0=0%)
C/C(=N\O)c1cccc2c1c(=O)c(C(=O)O)nn2-c1ccc(OC(F)(F)F)cc1 [Compound P15, 5-[(E)-N-hydroxy-C-methyl-carbonimidoyl]-4-oxo-1-[4-(trifluoromethoxy)phenyl] cinnoline-3-carboxylic acid]	3 (3=41-60%)	3 (3=41-60%)	2 (2=21-40%)	2 (2=21-40%)	1 (1=10-20%)	4 (4=61-80%)	3 (3=41-60%)	0 (0=0%)	5 (5=81-100%)	4 (4=61-80%)	3 (3=41-60%)	3 (3=41-60%)
CCOC(=O)c1nn(-c2ccc(OC(F)(F)F)cc2)c2cccc(C(C)=O)c2c1=O [Compound P30, ethyl 5-acetyl-4-oxo-1-[4-(trifluoromethoxy)phenyl] cinnoline-3-carboxylate]	4 (4=61-80%)	3 (3=41-60%)	1 (1=10-20%)	2 (2=21-40%)	1 (1=10-20%)	4 (4=61-80%)	2 (2=21-40%)	1 (1=10-20%)	5 (5=81-100%)	4 (4=61-80%)	4 (4=61-80%)	3 (3=41-60%)
CCOC(=O)c1nn(-c2ccc(OC(F)(F)F)cc2)c2cccc(-n3cc(C(F)(F)F)nn3)c2c1=O [Compound P33, ethyl 4-oxo-1-[4-(trifluoromethoxy)phenyl]-5-[4-(trifluoromethyl)triazol-1-yl]cinnoline-3-carboxylate]	0 (0=0%)	0 (0=0%)	0 (0=0%)	0 (0=0%)	0 (0=0%)	0 (0=0%)	0 (0=0%)	0 (0=0%)	0 (0=0%)	0 (0=0%)	1 (1=10-20%)	0 (0=0%)
C=C(OCC)c1cccc2c1c(=O)c(C(=O)OCC)nn2-c1ccc(OC(F)(F)F)cc1 [Compound P29, ethyl 5-(1-ethoxyvinyl)-4-oxo-1-[4-(trifluoromethoxy)phenyl] cinnoline-3-carboxylate]	3 (3=41-60%)	1 (1=10-20%)	1 (1=10-20%)	1 (1=10-20%)	0 (0=0%)	4 (4=61-80%)	0 (0=0%)	1 (1=10-20%)	5 (5=81-100%)	4 (4=61-80%)	1 (1=10-20%)	2 (2=21-40%)
COc1ccc(-n2nc(C(=O)O)c(=O)c3c(C#N)cccc32)cc1OC [Compound P41, 5-cyano-1-(3,4-dimethoxyphenyl)-4-oxo-cinnoline-3-carboxylic acid]	2 (2=21-40%)	1 (1=10-20%)	0 (0=0%)	0 (0=0%)	0 (0=0%)	–	1 (1=10-20%)	0 (0=0%)	0 (0=0%)	0 (0=0%)	0 (0=0%)	0 (0=0%)
CCOC(=O)c1nn(-c2ccc(OC(F)(F)F)cc2)c2cccc(-c3cc(C(F)F)on3)c2c1=O [Compound P12, ethyl 5-[5-(difluoromethyl)isoxazol-3-yl]-4-oxo-1-[4-(trifluoromethoxy)phenyl] cinnoline-3-carboxylate]	2 (2=21-40%)	1 (1=10-20%)	0 (0=0%)	0 (0=0%)	0 (0=0%)	0 (0=0%)	2 (2=21-40%)	0 (0=0%)	0 (0=0%)	0 (0=0%)	–	1 (1=10-20%)
CCOC(=O)c1nn(-c2ccc(OC(F)(F)F)cc2)c2cccc([N+](=O)[O-])c2c1=O [Compound P39, ethyl 5-nitro-4-oxo-1-[4-(trifluoromethoxy)phenyl] cinnoline-3-carboxylate]	3 (3=41-60%)	–	0 (0=0%)	1 (1=10-20%)	0 (0=0%)	3 (3=41-60%)	0 (0=0%)	0 (0=0%)	5 (5=81-100%)	2 (2=21-40%)	0 (0=0%)	0 (0=0%)
O=C(O)c1nn(-c2ccc(OC(F)(F)F)cc2)c2cccc([N+](=O)[O-])c2c1=O [Compound P40, 5-nitro-4-oxo-1-[4-(trifluoromethoxy)phenyl] cinnoline-3-carboxylic acid]	5 (5=81-100%)	–	2 (2=21-40%)	3 (3=41-60%)	1 (1=10-20%)	3 (3=41-60%)	0 (0=0%)	0 (0=0%)	5 (5=81-100%)	2 (2=21-40%)	0 (0=0%)	1 (1=10-20%)
CCOC(=O)c1nn(-c2ccc(OC)c(OC)c2)c2cccc(C#N)c2c1=O [Compound P42, ethyl 5-cyano-1-(3,4-dimethoxyphenyl)-4-oxo-cinnoline-3-carboxylate]	0 (0=0%)	0 (0=0%)	0 (0=0%)	0 (0=0%)	0 (0=0%)	–	0 (0=0%)	0 (0=0%)	0 (0=0%)	0 (0=0%)	0 (0=0%)	0 (0=0%)
